Positions of bridges follow the written chain, without caps; N, C: chain ends. Residues, ends and D or L forms follow the SMILES beside them.
Legend:
rat VEGF-A = molecular target: T1, rat VEGF-A (Rattus norvegicus, UniProt P16612); assay: SPR binding assay; conditions: for ka / kd: rat, Table 30
T1 sequence (P16612 27-139 limits assumed): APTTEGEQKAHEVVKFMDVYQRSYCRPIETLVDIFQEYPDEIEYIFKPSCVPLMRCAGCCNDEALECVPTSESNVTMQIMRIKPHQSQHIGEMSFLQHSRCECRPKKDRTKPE
Procedure: (§1) Depending on the format of the assay either a streptavidin sensor (SA) or a dextran-coated (CM5) sensor was utilized as described below.
(§2) For use with the SA sensor, VEGF-A was first biotinylated (no more than 2 biotin/VEGF-A) by incubating the protein with EZ-link NHS-PEG4-Biotin (Pierce) in a 1:1.5 molar ratio respectively, in PBS for 2 hours on ice. Reaction was then quenched by addition of 10 molar excess of Glycine pH 8.0 and the sample was buffer exchanged into PBS using an Amicon 0.5 mL 3000 MWCO ultra-centrifugal filters (EMD Millipore). The biotinylation state of the protein was verified by LC-MS analysis. Biotinylated VEGF-A was then captured on the surface until a resonance unit (RU) signal of about ˜400. For immobilization of VEGF-A on CM5 sensor, the surface was first activated with a mixture of N-ethyl-N′-(3-dimethylaminopropyl)carbodiimide hydrochloride and N-hydroxysuccinimide (EDC/NHS) according to the supplier instructions. VEGF-A was then diluted into coupling buffer (0.1 M Acetate Buffer, pH 5.0) and injected until the signal reached about ˜400 RU followed by a wash with 1 M ethanolamine pH 8.0 to quench remaining activated sites.
(§3) Following the capture step, a series of the peptide concentrations were prepared in HBS-EP buffer with matching DMSO concentrations to 0.1% and injected at a flow rate of […]. The resulting sensorgrams were then analyzed using a 1:1 binding model to obtain kinetic data and affinities using Scrubber 2.0 (BioLogic Software).

rabbit VEGF-A = molecular target: T2, rabbit VEGF-A (Oryctolagus cuniculus, UniProt G1T1L9); assay: SPR binding assay; conditions: for ka / kd: rabbit, Table 30
T2 sequence (G1T1L9 1-398): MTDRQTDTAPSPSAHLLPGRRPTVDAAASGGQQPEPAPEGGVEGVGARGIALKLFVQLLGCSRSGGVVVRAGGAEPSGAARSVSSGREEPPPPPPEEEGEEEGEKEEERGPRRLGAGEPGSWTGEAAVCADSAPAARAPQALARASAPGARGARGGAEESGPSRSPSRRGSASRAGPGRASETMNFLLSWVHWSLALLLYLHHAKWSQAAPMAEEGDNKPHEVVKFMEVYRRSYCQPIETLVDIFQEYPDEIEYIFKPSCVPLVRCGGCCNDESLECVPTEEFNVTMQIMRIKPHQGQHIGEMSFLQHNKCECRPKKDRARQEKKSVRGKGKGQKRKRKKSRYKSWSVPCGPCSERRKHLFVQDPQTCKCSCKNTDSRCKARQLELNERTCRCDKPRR
Procedure: as §1, §2, §3

VEGF human 165 = molecular target: T3, VEGF human 165 (Homo sapiens, UniProt P15692); assay: SPR binding assay; conditions: for ka / kd: human 165, Table 30
T3 sequence (P15692 27-191 isoform P15692-4): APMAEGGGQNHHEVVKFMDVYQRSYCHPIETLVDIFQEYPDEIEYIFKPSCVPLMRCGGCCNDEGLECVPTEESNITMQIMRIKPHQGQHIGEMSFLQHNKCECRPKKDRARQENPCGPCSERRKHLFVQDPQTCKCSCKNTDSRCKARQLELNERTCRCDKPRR
Procedure: as §1, §2, §3

VEGF mouse 164 = molecular target: T4, VEGF mouse 164 (Mus musculus, UniProt Q00731); assay: SPR binding assay; conditions: for ka / kd: mouse 164, Table 30
T4 sequence (Q00731 27-190 isoform Q00731-2): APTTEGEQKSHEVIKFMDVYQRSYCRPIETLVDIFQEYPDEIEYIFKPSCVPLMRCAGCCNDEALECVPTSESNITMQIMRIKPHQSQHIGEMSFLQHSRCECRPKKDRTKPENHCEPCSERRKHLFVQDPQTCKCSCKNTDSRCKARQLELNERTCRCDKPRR
Procedure: as §1, §2, §3

VEGF-A and KDR = molecular target: T5, VEGF-A and KDR (Homo sapiens, UniProt P15692); assay: Competition ELISA, KDR-VEGF interaction; assay type: binding
T5 sequence (P15692 207-395): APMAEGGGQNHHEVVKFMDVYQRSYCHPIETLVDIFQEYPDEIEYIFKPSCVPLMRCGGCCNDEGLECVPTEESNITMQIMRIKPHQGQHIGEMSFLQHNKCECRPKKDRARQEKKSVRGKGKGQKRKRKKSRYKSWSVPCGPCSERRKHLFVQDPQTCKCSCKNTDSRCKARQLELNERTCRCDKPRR
Procedure: Binding specificity of each peptide was established by competition ELISA. […] After blocking with block buffer (PBS with 0.5% BSA and 0.05% TWEEN®20) for 2 hours at room temperature, the receptor-Fc fusions or biotinylated receptors were serially diluted using assay buffer (PBS with 0.5% BSA and 0.05% TWEEN®20) and incubated for 1 hour at room temperature. […] Competition ELISA was conducted in an identical fashion as described above except after blocking, a mixture of serially diluted peptide containing a constant concentration of receptor-Fc fusion or biotinylated receptor (concentration of receptor was set to EC60) was added and incubated for 1 hour. All recombinant human proteins and antibodies were purchased from R &D Systems (Minneapolis, Minn.).

hVEGF-A (8-109) [1] = molecular target: T6, hVEGF-A (8-109) (Homo sapiens, UniProt P15692); assay: Phage competition ELISA; assay type: binding
T6 sequence (P15692 214-315): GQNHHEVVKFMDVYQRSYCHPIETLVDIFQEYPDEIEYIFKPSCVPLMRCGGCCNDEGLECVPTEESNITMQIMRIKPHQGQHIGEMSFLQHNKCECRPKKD

hVEGF-A (8-109) [2] = molecular target: T6, hVEGF-A (8-109); assay: SPR binding assay (BIACORE 3000, 37° C.)
In short: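 VEGF-A, biotinylated and captured on streptavidin sensor or amine-coupled to CM5 at pH 5.0, to about 400 RU. Peptide concentration series in HBS-EP with 0.1% DMSO injected at […]; kinetics and affinities from 1:1 binding model fits.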

trypsin = assay: Resistance to trypsin digestion; assay type: in vitro ADME; conditions: FIG. 4
Procedure: Approximately 20% of VEGF_CKP9.54.90 was cleaved at Arg13 within loop 2 after 24 h incubation with trypsin at 37° C.

| Structure (SMILES) | Kd (rat VEGF-A) | ka (rat VEGF-A) | kd (rat VEGF-A) | Kd (rabbit VEGF-A) | ka (rabbit VEGF-A) | kd (rabbit VEGF-A) | Kd (VEGF human 165) | ka (VEGF human 165) | kd (VEGF human 165) | Kd (VEGF mouse 164) | ka (VEGF mouse 164) | kd (VEGF mouse 164) | IC50 (VEGF-A and KDR) | IC50 (hVEGF-A (8-109) [1]) | Kd (hVEGF-A (8-109) [2]; KD (nM), hVEGF-A WT) | Kd (hVEGF-A (8-109) [2]; KD (nM), human 8-109, Table 30) | kd (hVEGF-A (8-109) [2]; hVEGF-A WT) | kd (hVEGF-A (8-109) [2]; human 8-109, Table 30) | kd (hVEGF-A (8-109) [2]; hVEGF-A (8-109), Table 29) | further results |
| --- | --- | --- | --- | --- | --- | --- | --- | --- | --- | --- | --- | --- | --- | --- | --- | --- | --- | --- | --- | --- |
| CC[C@H](C)[C@@H]1NC(=O)[C@H](CC(N)=O)NC(=O)[C@@H](NC(=O)CN)CSSC[C@@H](C(=O)N[C@H](C(=O)N[C@H]2CSSC[C@@H](C(=O)NCC(=O)O)NC(=O)[C@H](CO)NC(=O)[C@H](CCC(N)=O)NC(=O)[C@H](Cc3ccc(O)cc3)NC(=O)[C@H](Cc3ccc(O)cc3)NC(=O)[C@H](CCC(N)=O)NC2=O)C(C)C)NC(=O)CNC(=O)[C@H](C)NC(=O)[C@H](CC(C)C)NC(=O)[C@@H]2CSSC[C@H](NC(=O)CNC(=O)[C@H](Cc3c[nH]c4ccccc34)NC(=O)[C@H](Cc3ccccc3)NC(=O)[C@@H]3CCCN3C(=O)[C@H](CC(C)C)NC(=O)[C@H](CCSC)NC1=O)C(=O)N[C@@H](CCCCN)C(=O)N[C@@H](CCC(N)=O)C(=O)N[C@@H](CC(=O)O)C(=O)N[C@@H](CO)C(=O)N[C@@H](CC(=O)O)C(=O)N2 [VEGF_CKP9.54] (H-GCNIMLPFWGCKQDSDCLAGCVCQYYQSCG-OH; disulfide 2-21, 11-17, 23-29 (inferred); N-terminus and C-terminus assumed) | 176 nM | 1.93 × 10^6 | 2.96 × 10^−1 | 133 nM | 2.10 × 10^6 | 2.74 × 10^−1 | 190 nM | 8.23 × 10^5 | 1.49 × 10^−1 | 250 nM | 8.26 × 10^5 | 2.07 × 10^−1 | 5.8 nM | 450 nM | 55 nM | 176 nM | 0.2349 | 2.18 × 10^−1 | – | Kd (hVEGF-A (8-109) [2]; KD, Table 37, surface plasmon resonance, VEGF-A): 44 ± 6 nM; kd (hVEGF-A (8-109) [2]; Table 37, surface plasmon resonance, VEGF-A): 2.3 |
| CC[C@H](C)[C@@H]1NC(=O)[C@H](CC(=O)O)NC(=O)[C@@H]2CCCN2C(=O)CNC(=O)[C@@H]2CSSC[C@H](NC(=O)[C@H](CC(=O)O)NC1=O)C(=O)N[C@@H](CC(C)C)C(=O)N[C@@H](C)C(=O)NCC(=O)N[C@H](C(=O)N[C@H](C(=O)N[C@H]1CSSC[C@@H](C(=O)NCC(=O)O)NC(=O)[C@H](CO)NC(=O)[C@H](CC(N)=O)NC(=O)[C@H](Cc3ccc(O)cc3)NC(=O)[C@H](Cc3c[nH]c4ccccc34)NC(=O)[C@H](Cc3c[nH]cn3)NC1=O)C(C)C)CSSC[C@H](NC(=O)CN)C(=O)N[C@@H](CC(=O)O)C(=O)N[C@@H](C(C)C)C(=O)N[C@@H](CCSC)C(=O)N[C@@H](CCC(N)=O)C(=O)N1CCC[C@H]1C(=O)N[C@@H](Cc1ccc(O)cc1)C(=O)N[C@@H](Cc1c[nH]c3ccccc13)C(=O)NCC(=O)N2 [VEGF_CKP9.63.12] (H-GCDVMQPYWGCGPDIDCLAGCVCHWYNSCG-OH; disulfide 2-21, 11-17, 23-29 (inferred); N-terminus and C-terminus assumed) | – | 6.44 × 10^6 | 2.59 × 10^−2 | – | 6.91 × 10^6 | 1.78 × 10^−2 | – | 4.65 × 10^6 | 2.01 × 10^−2 | – | 1.04 × 10^6 | 1.32 × 10^−2 | – | – | – | – | 0.0096 | 2.50 × 10^−2 | 0.10 | resistance to trypsin digestion (trypsin): maintain a degree of resistance |
| CSCC[C@@H]1NC(=O)[C@H](C(C)C)NC(=O)[C@H](CC(=O)O)NC(=O)[C@@H](NC(=O)CN)CSSC[C@@H](C(=O)N[C@H](C(=O)N[C@H]2CSSC[C@@H](C(=O)NCC(=O)O)NC(=O)[C@H](CO)NC(=O)[C@H](CC(N)=O)NC(=O)[C@H](Cc3ccc(O)cc3)NC(=O)[C@H](Cc3c[nH]c4ccccc34)NC(=O)[C@H](Cc3c[nH]cn3)NC2=O)C(C)C)NC(=O)CNC(=O)[C@H](C)NC(=O)[C@H](CC(C)C)NC(=O)[C@@H]2CSSC[C@H](NC(=O)CNC(=O)[C@H](Cc3c[nH]c4ccccc34)NC(=O)[C@H](Cc3ccc(O)cc3)NC(=O)[C@@H]3CCCN3C(=O)[C@H](CCC(N)=O)NC1=O)C(=O)N[C@@H](CCCCN)C(=O)N[C@@H](CCC(N)=O)C(=O)N[C@@H](CC(=O)O)C(=O)N[C@@H](CO)C(=O)N[C@@H](CC(=O)O)C(=O)N2 [VEGF_CKP9.63] (H-GCDVMQPYWGCKQDSDCLAGCVCHWYNSCG-OH; disulfide 2-21, 11-17, 23-29 (inferred); N-terminus and C-terminus assumed) | 524 nM | 4.56 × 10^5 | 2.46 × 10^−1 | 311 nM | 4.24 × 10^5 | 1.30 × 10^−1 | 382 nM | 3.40 × 10^5 | 1.30 × 10^−1 | 289 nM | 5.57 × 10^5 | 1.60 × 10^−1 | 10.8 nM | 146 nM | 100 nM | 281 nM | 0.1624 | 1.81 × 10^−1 | 1.6 | Kd (hVEGF-A (8-109) [2]; KD, hVEGF-A (8-109), Table 29): 100 nM; ka (hVEGF-A (8-109) [2]; human 8-109, Table 30): 6.62 × 10^5 |
